The record followed here is patent publication US20260209177A1, “1-DEOXYNOJIRIMYCIN DERIVATIVE AND USE THEREOF” (ZHEJIANG UNIVERSITY, priority 2022, published 2026).

For assay [1], the system named is C57BL/6J mice with Ang II-induced myocardial hypertrophy. In words: Cardiac ultrasonography of mice with Ang II-induced myocardial hypertrophy. Particulars: 10 mg/kg/d intraperitoneal, 4 weeks, FIG. 22. The class given is in vivo, mouse. On the procedure:
(§1) Model construction was performed by adopting C57BL/6J wild-type mice with subcutaneous implantation and perfusion of angiotensin II (AngII)/normal saline (Saline) through an Alzet Osmotic Pump 2004. Relevant statistical results were obtained after continuous feeding, modeling and administration for 4 weeks.
Model construction: Weighing and anesthetization were performed, and skin preparation and disinfection were performed in surgical areas. A 1 cm incision above a scapula of a front leg was made by using surgical scissors, wherein the incision was perpendicular to a tail part. The skin was cut carefully without damaging underlying tissues, a subcutaneous tunnel was made under the skin by using hemostatic forceps, the pump with a regulator head was completely pushed into a pocket (pointing toward a tail end of each mouse), and the incision was sutured. […]
In the experiment, a Vinno 6LAB high-resolution ultrasonic detector for small animals was used for detection in a two-dimensional (2D) parasternal short-axis M mode. […] Each indicator was detected for 3-6 cardiac cycles, and a mean value of the measured cardiac cycles was calculated.

For assay [2] the test system is unchanged. Nature of the assay: Transmission electron microscopy of mitochondria in mouse heart tissue. The assay is classed as in vivo. The conditions noted are these: 10 mg/kg/d intraperitoneal, 4 weeks, TEM, FIG. 24. On the procedure: as §1
(§2) Administration method: Intraperitoneal injection was adopted at a drug dose of 10 mg/kg/d, drugs were dissolved in a phosphate buffer solution (PBS) and administered twice a day in the morning and the evening, and a placebo group was given a phosphate buffer solution (PBS) of a same volume.
After mice were sacrificed, a small portion of left ventricular tissues were taken, and cardiac muscles were trimmed to achieve cubes with a size of 1 mm^3. According to arrangement directions of mitochondria in the cardiac muscle tissues, tissues were selected respectively along long axes and short axes of hearts, and samples for transmission electron microscopy were prepared subsequently. […]

For another assay, the system named is HCM-iPSC-CMs. Nature of the assay: Patch clamp action potential of iPSC-CMs. The class given is cell-based, human. Particulars: 30 μM, 48 hours, compared with DNJ-1, FIG. 21. On the procedure: TrypLE was added into induced cardiomyocytes, and after digestion at 37° C. for 3 min, an RPMI complete culture medium was added. The cells were centrifuged at a low speed, resuspended with RPMI/B27, and inoculated into an 8 mm Matrigel-coated slide at a ratio of 1:10. The cells were placed in an environment with 5% of CO2 for culture at 37° C. At 16 hours after the inoculation, the culture medium was replaced with a fresh RPMI/B27 culture medium, 30 μM small molecule drugs were added in an experimental group, and DMSO of an equal volume was added in a control group. At 48 hours after the culture, the action potential of the cardiomyocytes was recorded. Cell slides were removed, placed in a constant-temperature patch clamp bath at 37° C., and continuously perfused and rinsed with an extracellular fluid. Cell membranes of the cardiomyocytes were sucked and broken at a negative pressure, and the action potential of the cells capable of spontaneously pulsating was recorded. Data were collected and analyzed through Patch Master (HEKA), Fit Master (HEKA), Igor Pro (Wavemetrics) and Origin 6.1 (Microcal) software.
(The patch-clamp technique gives a direct electrical read-out from membranes.)

In assay [3] the test system is C57BL/6J mice with Ang II-induced myocardial hypertrophy. In words: Heart weight/body weight of Ang II mice. Particulars: 10 mg/kg/d intraperitoneal, 4 weeks, FIG. 23. The assay is classed as in vivo, mouse. On the procedure: as §1, §2
After continuous feeding, modeling and administration for 4 weeks, indicators, such as body weight, of mice were measured before sampling, then the mice were deeply anesthetized with isoflurane, and the mice were sacrificed after completely losing the sense of pain. Hearts were obtained after the mice were sacrificed, and indicators, such as heart weight, were measured.
In histological analysis, the hearts of the mice were collected, cut along maximum cross sections, and fixed with 4% paraformaldehyde. Subsequently, paraffin embedding, sectioning and hematoxylin-eosin (HE) staining of the maximum cross sections were performed. […] The sections were scanned by a scanner (3DHISTECH), and obtained and measured through software slideviewer.

Turning to `CC(C)(C)C(=O)OC[C@H]1NC[C@H](O)[C@@H](O)[C@@H]1O` [DNJ-5a, ((2R,3R,4R,5S)-3,4,5-trihydroxypiperidin-2-yl)methyl pivalate], the “cardiac ultrasonography parameters (EF, FS, LVPWd, LVPWs)” value in assay [1] was “better performance”. For the same compound, in assay [2], the “mitochondrial ultrastructure of heart tissue (crista, vacuolation proportion)” value was “more significantly improve the ultrastructure of the mitochondrial crista and decrease a vacuolation proportion”. The “proportion of electrophysiologically abnormal cells (action potential)” value in the assay with HCM-iPSC-CMs was “improve the proportion of electrophysiologically abnormal cells in HCM-iPSC-CMs more significantly”. In addition, in assay [3], the heart weight/body weight entry is “better performance”.
